Our source for the IC50 values is US8178538B2, “Pyridazinones” (Hoffmann-La Roche Inc., priority 2008, dated 2012).

This experiment deals with T1, PDE10A2 (Homo sapiens, UniProt Q9Y233).
T1 construct: residues serine 449 to aspartate 789; His6 (H6) with thrombin cleavage site (N, cleaved yes); made in house; host or cells: E. coli BL21(DE3) pLysS
Nature of the experiment: PDE10A2 inhibition, Scintillation Proximity Assay (SPA). Format: biochemical. The following applies: catalytic domain of human PDE10A2 (S449-D789), 0.25 nM enzyme, 50 nM cGMP + 50 nM [3H]-cGMP, 30 minutes at room temperature. Here is the method:
The following tests were carried out in order to determine the activity of the compounds of the present invention. PDE10 activity of the compounds of the present invention is determined using a Scintillation Proximity Assay (SPA)-based method similar to the one previously described (Fawcett, L. et al., Proc Natl Acad Sci USA (2000) 97(7):3702-3707).
PDE10A1 and PDE10A2 are two splice variants of PDE10A. There are these 2 splice variants known, which differ in the N-terminal part of the protein. The catalytic domains of PDE10A1 and PDE10A2 are identical. The assay for PDE10A2 described below is therefore also representative for PDE10A1 and also for PDE10A in general.
The PDE10A2 assay was performed in a two step procedure in 96-well micro titer plates. The reaction mixture of 80 μl contained 20 mM HEPES/10 mM MgCl2/[…] (pH 7.5), 50 nM cGMP (Sigma) and 50 nM [^3H]-cGMP (GE Healthcare), 0.25 nM PDE10A2 with or without a specific test compound. A range of concentrations of the potential inhibitor was used to generate data for calculating the concentration of inhibitor resulting in 50% of the effect (e.g. IC50, the concentration of the competitor inhibiting PDE10A2 activity 50%). Non-specific activity was tested without the enzyme. The reaction was initiated by addition of the substrate solution (cGMP and [^3H]-cGMP) and allowed to progress for 30 minutes at room temperature. The reaction was terminated by transferring 50 μl of the reaction mixture into an OptiPlate (Perkin Elmer) containing 25 μl of YSi-SPA scintillation beads (GE Healthcare) in 18 mM zinc sulphate solution (stop reagent). After 1 h under shaking, the plate was centrifuged one minute at 1000 rpm to allow beads to settle. Afterwards, radioactive counts were measured on a Perkin Elmer TopCount Scintillation plate reader.
The catalytic domain of human PDE10A2, residues serine 449 to aspartate 789, was amplified by PCR using cDNA (Origene) and the oligonucleotides 5′-GGGGACAAGTTT […]-3′ (SEQ ID NO. 1) (with AttB1 recombination site in bold and thrombin protease cleavage site in italics) and 5′-[…] GCTG-3′ (SEQ ID NO. 2) (with AttB2 recombination site in bold) which conferred Gateway recombination sites. The PCR product was used in a BP recombination reaction with pDONR221 to generate pENTR Thm-PDE10A2(S449-D789) which was DNA sequence verified and then used in an LR recombination reaction with a Gateway modified version of pET11a. The resulting expression vector, placT7.2H6-(gw1)-Thm-PDE10A2(S449-D789) was DNA sequence confirmed and transformed into E. coli strain BL21(DE3) pLysS and recombinant protein was produced in TB medium at 20° C. by induction to a final IPTG concentration of 0.5 mM at an optical density of 1.0 at 600 nm for 20 hours. About 30% of the protein was in the soluble fraction of the cell homogenate. The protein was purified using sequential chromatography on Ni-NTA and HiTrapQ/HiTrapS. After thrombin digest at room temperature a HiTrapChelating/HiTrap Benzamindin chromatography removed impurities, uncleaved protein and thrombin. Final purification of PDE10A2(S449-D789) was performed on a Superdex 75 size exclusion chromatography equilibrated with 25 mM HEPES pH 8.4, 0.15 M NaCl. The yield of pure protein was 2 mg/liter of culture volume is relatively low. The purity of the protein was >95%, monomeric and monodisperse as shown by SDS-PAGE, HPLC and analytical ultracentrifugation.

T1 sequence (Q9Y233 715-1055): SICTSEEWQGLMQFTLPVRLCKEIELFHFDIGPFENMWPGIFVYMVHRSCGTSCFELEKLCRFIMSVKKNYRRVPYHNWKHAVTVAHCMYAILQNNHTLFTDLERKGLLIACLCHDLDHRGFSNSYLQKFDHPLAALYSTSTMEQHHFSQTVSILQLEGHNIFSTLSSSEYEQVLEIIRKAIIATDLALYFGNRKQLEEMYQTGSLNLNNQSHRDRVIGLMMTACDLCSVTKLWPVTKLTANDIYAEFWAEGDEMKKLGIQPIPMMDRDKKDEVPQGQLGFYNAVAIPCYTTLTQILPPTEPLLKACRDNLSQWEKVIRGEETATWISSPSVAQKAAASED

On to `Cc1cc(-n2nccc2-c2nn(-c3cccc(S(C)(=O)=O)c3)ccc2=O)ccn1` [Example 90, 1-(3-Methanesulfonyl-phenyl)-3-[2-(2-methyl-pyridin-4-yl)-2H-pyrazol-3-yl]-1H-pyridazin-4-one], for which the half-maximal inhibitory concentration (IC50) (as a rule, the concentration at which inhibition is half-maximal) is 37 nM.
The result for `CS(=O)(=O)c1cccc(-n2ccc(=O)c(-c3ccnn3-c3cccc(C#N)c3)n2)c1` [Example 94, 3-{5-[1-(3-Methanesulfonyl-phenyl)-4-oxo-1,4-dihydro-pyridazin-3-yl]-pyrazol-1-yl}-benzonitrile] reads 55 nM.
With `COc1ccc(-c2csc(-n3nccc3-c3nn(-c4cccc(S(C)(=O)=O)c4)ccc3=O)n2)c(F)c1` [Example 95, 3-{2-[4-(2-Fluoro-4-methoxy-phenyl)-thiazol-2-yl]-2H-pyrazol-3-yl}-1-(3-methanesulfonyl-phenyl)-1H-pyridazin-4-one], the IC50 came to 1200 nM.
For the compound `O=c1ccn(-c2cccc(OC(F)F)c2)nc1-c1ccnn1-c1cccc(F)c1` [Example 98, 1-(3-Difluoromethoxy-phenyl)-3-[2-(3-fluoro-phenyl)-2H-pyrazol-3-yl]-1H-pyridazin-4-one], the IC50 is 222 nM.
The result for `O=c1ccn(-c2ccc(OC(F)F)cc2)nc1-c1ccnn1-c1cccc(F)c1` [Example 100, 1-(4-Difluoromethoxy-phenyl)-3-[2-(3-fluoro-phenyl)-2H-pyrazol-3-yl]-1H-pyridazin-4-one] reads 105 nM.
The result for `O=c1ccn(-c2ccc3c(c2)OC(F)(F)O3)nc1-c1ccnn1-c1ccc2c(c1)OCCO2` [Example 101, 1-(2,2-Difluoro-benzo[1,3]dioxol-5-yl)-3-[2-(2,3-dihydro-benzo[1,4]dioxin-6-yl)-2H-pyrazol-3-yl]-1H-pyridazin-4-one] reads 37 nM.
In the case of `CS(=O)(=O)c1cccc(-n2ccc(=O)c(-c3ccnn3-c3ccc(F)cc3F)n2)c1` [Example 105, 3-[2-(2,4-Difluoro-phenyl)-2H-pyrazol-3-yl]-1-(3-methanesulfonyl-phenyl)-1H-pyridazin-4-one], the IC50 was 54 nM.
The result for `CS(=O)(=O)c1cccc(-n2ccc(=O)c(-c3ccnn3-c3cccc4c3OCO4)n2)c1` [Example 106, 3-(2-Benzo[1,3]dioxol-4-yl-2H-pyrazol-3-yl)-1-(3-methanesulfonyl-phenyl)-1H-pyridazin-4-one] reads 40 nM; that for `O=c1ccn(-c2cccc(F)c2)nc1-c1ccnn1-c1ccc2c(c1)OCO2` [Example 109, 3-(2-Benzo[1,3]dioxol-5-yl-2H-pyrazol-3-yl)-1-(3-fluoro-phenyl)-1H-pyridazin-4-one], 72 nM; that for `N#Cc1cccc(-n2nccc2-c2nn(-c3cccc4c3OCO4)ccc2=O)c1` [Example 114, 3-[5-(1-Benzo[1,3]dioxol-4-yl-4-oxo-1,4-dihydro-pyridazin-3-yl)-pyrazol-1-yl]-benzonitrile], 82 nM.
`O=c1ccn(-c2cccc(OC(F)F)c2)nc1-c1ccnn1-c1cc(F)ccc1F` [Example 116, 1-(3-Difluoromethoxy-phenyl)-3-[2-(2,5-difluoro-phenyl)-2H-pyrazol-3-yl]-1H-pyridazin-4-one]: the IC50 is 33 nM.
The result for `CS(=O)(=O)c1cccc(-n2ccc(=O)c(-c3ccnn3-c3cccc(OC(F)(F)F)c3)n2)c1` [Example 122, 1-(3-Methanesulfonyl-phenyl)-3-[2-(3-trifluoromethoxy-phenyl)-2H-pyrazol-3-yl]-1H-pyridazin-4-one] reads 28 nM; that for `Cc1cc(-n2nccc2-c2nn(-c3cccc(OC(F)(F)F)c3)ccc2=O)ccn1` [Example 124, 3-[2-(2-Methyl-pyridin-4-yl)-2H-pyrazol-3-yl]-1-(3-trifluoromethoxy-phenyl)-1H-pyridazin-4-one], 57 nM; that for `N#Cc1cccc(-n2nccc2-c2nn(-c3cccc4c3OC(F)(F)O4)ccc2=O)c1` [Example 129, 3-{5-[1-(2,2-Difluoro-benzo[1,3]dioxol-4-yl)-4-oxo-1,4-dihydro-pyridazin-3-yl]-pyrazol-1-yl}-benzonitrile], 80 nM.
The result for `Cc1cc(-n2nccc2-c2nn(-c3cccc(S(=O)(=O)N(C)C)c3)ccc2=O)ccn1` [Example 133, N,N-Dimethyl-3-{3-[2-(2-methyl-pyridin-4-yl)-2H-pyrazol-3-yl]-4-oxo-4H-pyridazin-1-yl}-benzenesulfonamide] reads 71 nM; that for `O=c1ccn(-c2ccc(OC(F)(F)F)cc2)nc1-c1ccnn1-c1ccc(F)cc1` [Example 138, 3-[2-(4-Fluoro-phenyl)-2H-pyrazol-3-yl]-1-(4-trifluoromethoxy-phenyl)-1H-pyridazin-4-one], 37 nM; that for `O=c1ccn(-c2ccc(OC(F)(F)F)cc2)nc1-c1ccnn1-c1cccc2c1OC(F)(F)O2` [Example 145, 3-[2-(2,2-Difluoro-benzo[1,3]dioxol-4-yl)-2H-pyrazol-3-yl]-1-(4-trifluoromethoxy-phenyl)-1H-pyridazin-4-one], 72 nM.
Turning to `O=c1ccn(-c2ccc(OC(F)F)cc2)nc1-c1ccnn1-c1ccnc2ccc(F)cc12` [Example 149, 1-(4-Difluoromethoxy-phenyl)-3-[2-(6-fluoro-quinolin-4-yl)-2H-pyrazol-3-yl]-1H-pyridazin-4-one], the 50% inhibitory concentration (IC50) worked out at 14 nM.
For `O=c1ccn(-c2cccc(OC(F)F)c2)nc1-c1ccnn1-c1ccnc2ccc(F)cc12` [Example 150, 1-(3-Difluoromethoxy-phenyl)-3-[2-(6-fluoro-quinolin-4-yl)-2H-pyrazol-3-yl]-1H-pyridazin-4-one], the IC50 worked out at 5 nM.
As for `CS(=O)(=O)c1ccc(-n2ccc(=O)c(-c3ccnn3-c3ccc(F)cc3)n2)cc1` [Example 153, 3-[2-(4-Fluoro-phenyl)-2H-pyrazol-3-yl]-1-(4-methanesulfonyl-phenyl)-1H-pyridazin-4-one], the IC50 was determined as 67 nM.
Take `CS(=O)(=O)c1ccc(-n2ccc(=O)c(-c3ccnn3-c3cccc(Cl)c3)n2)cc1` [Example 157, 3-[2-(3-Chloro-phenyl)-2H-pyrazol-3-yl]-1-(4-methanesulfonyl-phenyl)-1H-pyridazin-4-one]: the IC50 turned out to be 92 nM.
The result for `O=c1ccn(-c2cccc(OC(F)(F)F)c2)nc1-c1ccnn1-c1ccc2c(c1)OC(F)(F)O2` [Example 162, 3-[2-(2,2-Difluoro-benzo[1,3]dioxol-5-yl)-2H-pyrazol-3-yl]-1-(3-trifluoromethoxy-phenyl)-1H-pyridazin-4-one] reads 155 nM.
The result for `O=c1ccn(-c2ccc(OC(F)F)cc2)nc1-c1ccnn1-c1cccc(OC(F)(F)F)c1` [Example 165, 1-(4-Difluoromethoxy-phenyl)-3-[2-(3-trifluoromethoxy-phenyl)-2H-pyrazol-3-yl]-1H-pyridazin-4-one] reads 51 nM.
Take `O=c1ccn(-c2cccc(OC(F)F)c2)nc1-c1ccnn1-c1ccccc1F` [Example 171, 1-(3-Difluoromethoxy-phenyl)-3-[2-(2-fluoro-phenyl)-2H-pyrazol-3-yl]-1H-pyridazin-4-one]: the IC50 is 46 nM.
As for `O=c1ccn(-c2ccc3c(c2)OC(F)(F)O3)nc1-c1ccnn1-c1ccccc1F` [Example 174, 1-(2,2-Difluoro-benzo[1,3]dioxol-5-yl)-3-[2-(2-fluoro-phenyl)-2H-pyrazol-3-yl]-1H-pyridazin-4-one], the IC50 was 184 nM.
The result for `Cc1cc(-n2nccc2-c2nn(-c3cccc(OC(F)(F)F)c3)ccc2=O)c2cc(F)ccc2n1` [Example 177, 3-[2-(6-Fluoro-2-methyl-quinolin-4-yl)-2H-pyrazol-3-yl]-1-(3-trifluoromethoxy-phenyl)-1H-pyridazin-4-one] reads 27 nM.
